≈ marks a conversion by molar mass, not a printed value.
How the values were obtained:
Assay type in all cases: functional
Candida albicans [1] = assay: Antifungal activity against Candida albicans ATCC 76615 assessed as fungal growth inhibition incubated for 24 hrs by CLSI protocol based broth microdilution method
Aspergillus flavus [2] = assay: Synergistic antifungal activity against Aspergillus flavus ATCC 16870 assessed as fungal growth inhibition incubated for 24 hrs in the presence of 4-(6-methoxy-2-oxo-1,2-dihydrospiro[benzo[d][1,3]oxazine-4,4'-piperidin]-1'-yl)-N-(2-methoxy-4-nitrophenyl)-4-oxobut-2-enamide by broth dilution based checkerboard method
Aspergillus fumigatus [3] = assay: Synergistic antifungal activity against Aspergillus fumigatus GIMCC 3.19 assessed as fungal growth inhibition incubated for 24 hrs in the presence of 4-(6-methoxy-2-oxo-1,2-dihydrospiro[benzo[d][1,3]oxazine-4,4'-piperidin]-1'-yl)-N-(4-methoxyphenyl)-4-oxobut-2-enamide by broth dilution based checkerboard method
Candida albicans [4] = assay: Synergistic antifungal activity against Candida albicans ATCC 76615 assessed as fungal growth inhibition incubated for 24 hrs in the presence of 4-(6-methoxy-2-oxo-1,2-dihydrospiro[benzo[d][1,3]oxazine-4,4'-piperidin]-1'-yl)-N-(4-methoxyphenyl)-4-oxobut-2-enamide by broth dilution based checkerboard method
Cryptococcus neoformans [5] = assay: Antifungal activity against Cryptococcus neoformans ATCC 208821 assessed as fungal growth inhibition incubated for 24 hrs by CLSI protocol based broth microdilution method
Cryptococcus neoformans [6] = assay: Synergistic antifungal activity against Cryptococcus neoformans ATCC 208821 assessed as fungal growth inhibition incubated for 24 hrs in the presence of N-(3-chloro-4-fluorophenyl)-4-(6-methoxy-2-oxo-1,2-dihydrospiro[benzo[d][1,3]oxazine-4,4'-piperidin]-1'-yl)-4-oxobut-2-enamide by broth dilution based checkerboard method
Cryptococcus neoformans [7] = assay: Synergistic antifungal activity against Cryptococcus neoformans ATCC 208821 assessed as fungal growth inhibition incubated for 24 hrs in the presence of 4-(6-methoxy-2-oxo-1,2-dihydrospiro[benzo[d][1,3]oxazine-4,4'-piperidin]-1'-yl)-4-oxo-N-phenylbut-2-enamide by broth dilution based checkerboard method
Aspergillus fumigatus [8] = assay: Synergistic antifungal activity against Aspergillus fumigatus GIMCC 3.19 assessed as fungal growth inhibition incubated for 24 hrs in the presence of 4-(6-methoxy-2-oxo-1,2-dihydrospiro[benzo[d][1,3]oxazine-4,4'-piperidin]-1'-yl)-4-oxo-N-phenylbut-2-enamide by broth dilution based checkerboard method
Aspergillus flavus [9] = assay: Synergistic antifungal activity against Aspergillus flavus ATCC 16870 assessed as fungal growth inhibition incubated for 24 hrs in the presence of N-(4-bromophenyl)-4-(6-methoxy-2-oxo-1,2-dihydrospiro[benzo[d][1,3]oxazine-4,4'-piperidin]-1'-yl)-4-oxobut-2-enamide by broth dilution based checkerboard method
Cryptococcus neoformans [10] = assay: Synergistic antifungal activity against Cryptococcus neoformans ATCC 208821 assessed as fungal growth inhibition incubated for 24 hrs in the presence of 4-(6-methoxy-2-oxo-1,2-dihydrospiro[benzo[d][1,3]oxazine-4,4'-piperidin]-1'-yl)-N-(2-methoxy-4-nitrophenyl)-4-oxobut-2-enamide by broth dilution based checkerboard method
Candida albicans [11] = assay: Antifungal activity against fluconazole-resistant Candida albicans ATCC 76615R assessed as fungal growth inhibition
Cryptococcus neoformans [12] = assay: Synergistic antifungal activity against Cryptococcus neoformans ATCC 208821 assessed as fungal growth inhibition incubated for 24 hrs in the presence of N-(2-chlorophenyl)-4-(6-methoxy-2-oxo-1,2-dihydrospiro[benzo[d][1,3]oxazine-4,4'-piperidin]-1'-yl)-4-oxobut-2-enamide by broth dilution based checkerboard method
Candida albicans [13] = assay: Synergistic antifungal activity against Candida albicans ATCC 76615 assessed as fungal growth inhibition incubated for 24 hrs in the presence of N-(2-chlorophenyl)-4-(6-methoxy-2-oxo-1,2-dihydrospiro[benzo[d][1,3]oxazine-4,4'-piperidin]-1'-yl)-4-oxobut-2-enamide by broth dilution based checkerboard method
Candida albicans [14] = assay: Synergistic antifungal activity against Candida albicans ATCC 76615 assessed as fungal growth inhibition incubated for 24 hrs in the presence of 4-(6-methoxy-2-oxo-1,2-dihydrospiro[benzo[d][1,3]oxazine-4,4'-piperidin]-1'-yl)-4-oxo-N-phenylbut-2-enamide by broth dilution based checkerboard method
Aspergillus fumigatus [15] = assay: Synergistic antifungal activity against Aspergillus fumigatus GIMCC 3.19 assessed as fungal growth inhibition incubated for 24 hrs in the presence of 4-(6-methoxy-2-oxo-1,2-dihydrospiro[benzo[d][1,3]oxazine-4,4'-piperidin]-1'-yl)-N-(2-methoxy-4-nitrophenyl)-4-oxobut-2-enamide by broth dilution based checkerboard method
Aspergillus flavus [16] = assay: Antifungal activity against Aspergillus flavus ATCC 16870 assessed as fungal growth inhibition incubated for 24 hrs by CLSI protocol based broth microdilution method
Aspergillus flavus [17] = assay: Synergistic antifungal activity against Aspergillus flavus ATCC 16870 assessed as fungal growth inhibition incubated for 24 hrs in the presence of N-(3-chloro-4-fluorophenyl)-4-(6-methoxy-2-oxo-1,2-dihydrospiro[benzo[d][1,3]oxazine-4,4'-piperidin]-1'-yl)-4-oxobut-2-enamide by broth dilution based checkerboard method
Candida albicans [18] = assay: Synergistic antifungal activity against Candida albicans ATCC 76615 assessed as fungal growth inhibition incubated for 24 hrs in the presence of N-(4-bromophenyl)-4-(6-methoxy-2-oxo-1,2-dihydrospiro[benzo[d][1,3]oxazine-4,4'-piperidin]-1'-yl)-4-oxobut-2-enamide by broth dilution based checkerboard method
Cryptococcus neoformans [19] = assay: Synergistic antifungal activity against Cryptococcus neoformans ATCC 208821 assessed as fungal growth inhibition incubated for 24 hrs in the presence of N-(4-bromophenyl)-4-(6-methoxy-2-oxo-1,2-dihydrospiro[benzo[d][1,3]oxazine-4,4'-piperidin]-1'-yl)-4-oxobut-2-enamide by broth dilution based checkerboard method
Aspergillus flavus [20] = assay: Synergistic antifungal activity against Aspergillus flavus ATCC 16870 assessed as fungal growth inhibition incubated for 24 hrs in the presence of 4-(6-methoxy-2-oxo-1,2-dihydrospiro[benzo[d][1,3]oxazine-4,4'-piperidin]-1'-yl)-4-oxo-N-phenylbut-2-enamide by broth dilution based checkerboard method
Cryptococcus neoformans [21] = assay: Antifungal activity against fluconazole-resistant Cryptococcus neoformans ATCC 208821R assessed as fungal growth inhibition
Aspergillus flavus [22] = assay: Synergistic antifungal activity against Aspergillus flavus ATCC 16870 assessed as fungal growth inhibition incubated for 24 hrs in the presence of N-(2-chlorophenyl)-4-(6-methoxy-2-oxo-1,2-dihydrospiro[benzo[d][1,3]oxazine-4,4'-piperidin]-1'-yl)-4-oxobut-2-enamide by broth dilution based checkerboard method
Aspergillus fumigatus [23] = assay: Synergistic antifungal activity against Aspergillus fumigatus GIMCC 3.19 assessed as fungal growth inhibition incubated for 24 hrs in the presence of N-(4-bromophenyl)-4-(6-methoxy-2-oxo-1,2-dihydrospiro[benzo[d][1,3]oxazine-4,4'-piperidin]-1'-yl)-4-oxobut-2-enamide by broth dilution based checkerboard method
Aspergillus flavus [24] = assay: Synergistic antifungal activity against Aspergillus flavus ATCC 16870 assessed as fungal growth inhibition incubated for 24 hrs in the presence of 4-(6-methoxy-2-oxo-1,2-dihydrospiro[benzo[d][1,3]oxazine-4,4'-piperidin]-1'-yl)-N-(4-methoxyphenyl)-4-oxobut-2-enamide by broth dilution based checkerboard method
Aspergillus fumigatus [25] = assay: Synergistic antifungal activity against Aspergillus fumigatus GIMCC 3.19 assessed as fungal growth inhibition incubated for 24 hrs in the presence of N-(3-chloro-4-fluorophenyl)-4-(6-methoxy-2-oxo-1,2-dihydrospiro[benzo[d][1,3]oxazine-4,4'-piperidin]-1'-yl)-4-oxobut-2-enamide by broth dilution based checkerboard method
Aspergillus fumigatus [26] = assay: Antifungal activity against Aspergillus fumigatus GIMCC 3.19 assessed as fungal growth inhibition incubated for 24 hrs by CLSI protocol based broth microdilution method
Candida albicans [27] = assay: Synergistic antifungal activity against Candida albicans ATCC 76615 assessed as fungal growth inhibition incubated for 24 hrs in the presence of N-(3-chloro-4-fluorophenyl)-4-(6-methoxy-2-oxo-1,2-dihydrospiro[benzo[d][1,3]oxazine-4,4'-piperidin]-1'-yl)-4-oxobut-2-enamide by broth dilution based checkerboard method
Candida albicans [28] = assay: Synergistic antifungal activity against Candida albicans ATCC 76615 assessed as fungal growth inhibition incubated for 24 hrs in the presence of 4-(6-methoxy-2-oxo-1,2-dihydrospiro[benzo[d][1,3]oxazine-4,4'-piperidin]-1'-yl)-N-(2-methoxy-4-nitrophenyl)-4-oxobut-2-enamide by broth dilution based checkerboard method
Aspergillus fumigatus [29] = assay: Synergistic antifungal activity against Aspergillus fumigatus GIMCC 3.19 assessed as fungal growth inhibition incubated for 24 hrs in the presence of N-(2-chlorophenyl)-4-(6-methoxy-2-oxo-1,2-dihydrospiro[benzo[d][1,3]oxazine-4,4'-piperidin]-1'-yl)-4-oxobut-2-enamide by broth dilution based checkerboard method
Cryptococcus neoformans [30] = assay: Synergistic antifungal activity against Cryptococcus neoformans ATCC 208821 assessed as fungal growth inhibition incubated for 24 hrs in the presence of 4-(6-methoxy-2-oxo-1,2-dihydrospiro[benzo[d][1,3]oxazine-4,4'-piperidin]-1'-yl)-N-(4-methoxyphenyl)-4-oxobut-2-enamide by broth dilution based checkerboard method

Structure (SMILES): OC(Cn1cncn1)(Cn1cncn1)c1ccc(F)cc1F [FLUCONAZOLE]
- MIC (Candida albicans [1]): 16 µg/mL (≈ 52.2 µM)
- MIC (Aspergillus flavus [2]): 16 µg/mL
- MIC (Aspergillus fumigatus [3]): 16 µg/mL
- MIC (Candida albicans [4]): 16 µg/mL
- MIC (Cryptococcus neoformans [5]): 32 µg/mL (≈ 104 µM)
- MIC (Cryptococcus neoformans [6]): 4 µg/mL
- MIC (Cryptococcus neoformans [7]): 16 µg/mL
- MIC (Aspergillus fumigatus [8]): 4 µg/mL
- MIC (Aspergillus flavus [9]): 32 µg/mL
- MIC (Cryptococcus neoformans [10]): 16 µg/mL
- MIC (Candida albicans [11]): 256 µg/mL (≈ 836 µM)
- MIC (Cryptococcus neoformans [12]): 4 µg/mL
- MIC (Candida albicans [13]): 4 µg/mL
- MIC (Candida albicans [14]): 8 µg/mL
- MIC (Aspergillus fumigatus [15]): 16 µg/mL
- MIC (Aspergillus flavus [16]): 16 µg/mL (≈ 52.2 µM)
- MIC (Aspergillus flavus [17]): 16 µg/mL
- MIC (Candida albicans [18]): 4 µg/mL
- MIC (Cryptococcus neoformans [19]): 16 µg/mL
- MIC (Aspergillus flavus [20]): 8 µg/mL
- MIC (Cryptococcus neoformans [21]): 256 µg/mL (≈ 836 µM)
- MIC (Aspergillus flavus [22]): 16 µg/mL
- MIC (Aspergillus fumigatus [23]): 16 µg/mL
- MIC (Aspergillus flavus [24]): 16 µg/mL
- MIC (Aspergillus fumigatus [25]): 4 µg/mL
- MIC (Aspergillus fumigatus [26]): 16 µg/mL (≈ 52.2 µM)
- MIC (Candida albicans [27]): 16 µg/mL
- MIC (Candida albicans [28]): 16 µg/mL
- MIC (Aspergillus fumigatus [29]): 16 µg/mL
- MIC (Cryptococcus neoformans [30]): 16 µg/mL
